The target in this test is T1, CK1δ (Homo sapiens, UniProt P48730).
T1 construct: endogenous in cells; host or cells: Bmal1-dLuc or Per2-dLuc U2OS cells
T1 sequence (P48730 whole entry): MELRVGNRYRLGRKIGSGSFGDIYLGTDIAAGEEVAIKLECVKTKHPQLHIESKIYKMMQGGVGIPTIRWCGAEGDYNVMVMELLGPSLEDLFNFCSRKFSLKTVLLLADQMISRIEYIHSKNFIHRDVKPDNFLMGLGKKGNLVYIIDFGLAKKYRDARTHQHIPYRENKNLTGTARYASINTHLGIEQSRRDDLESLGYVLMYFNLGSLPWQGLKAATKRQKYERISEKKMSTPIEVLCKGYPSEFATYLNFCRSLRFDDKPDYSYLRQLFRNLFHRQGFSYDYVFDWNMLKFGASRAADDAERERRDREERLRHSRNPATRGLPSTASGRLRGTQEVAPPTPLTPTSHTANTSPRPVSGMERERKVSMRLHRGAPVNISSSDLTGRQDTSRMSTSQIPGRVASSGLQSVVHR
Put plainly: CK1δ inhibition (EC50); Bmal1-dLuc or Per2-dLuc U2OS luminescence rhythm period assay. The format is cell-based. Particulars: Table 3. How it is done: Bmall-dLuc or Per2-dLuc U2OS cells were suspended in the culture medium (DMEM supplemented with 10% fetal bovine serum, 0.29 mg/mL L-glutamine, 100 units/mL penicillin, and […] streptomycin) and plated onto 96-well white solid-bottom plates at 200 μL (10,000 cells) per well. After 2 days, 100 μL of the explant medium (DMEM supplemented with 2% B27, 10 mM HEPES, 0.38 mg/mL sodium bicarbonate, 0.29 mg/mL L-glutamine, 100 units/mL penicillin, […], 0.1 mg/mL gentamicin, and 1 mM luciferin, pH 7.2) was dispensed to each well, followed by the application of 1 μL of a compound of the present application (dissolved in DMSO; final concentration was 0.7% in DMSO). The plate was covered with an optically clear film and set to microplate reader (Infinite M200, Tecan).
Turning to `CC(=O)N1CCn2nc(-c3ccc(F)cc3)c(-c3ccnc(Nc4ccccc4)c3)c2C1` [Compound I-74, 1-(2-(4-fluorophenyl)-3-(2-(phenylamino)pyridin-4-yl)-6,7-dihydropyrazolo[1,5-a]pyrazin-5(4H)-yl)ethan-1-one], the EC50 stood at 1600 nM.

On to `CC(=O)Nc1cc(-c2c(-c3ccc(F)cc3)nn3c2CN(C(=O)C(F)(F)F)CC3)ccn1` [Compound I-30, N-(4-(2-(4-fluorophenyl)-5-(2,2,2-trifluoroacetyl)-4,5,6,7-tetrahydropyrazolo[1,5-a]pyrazin-3-yl)pyridin-2-yl)acetamide], for which it took 500 nM to reach a half-maximal effect (EC50).

The molecule `CS(=O)(=O)N1CCn2nc(-c3ccc(F)cc3)c(-c3ccnc(N)c3)c2C1` [Compound I-25, 4-(2-(4-fluorophenyl)-5-(methylsulfonyl)-4,5,6,7-tetrahydropyrazolo[1,5-a]pyrazin-3-yl)pyridin-2-amine] returned an EC50 of 670 nM.

`Cc1cc(-c2c(-c3ccc(F)cc3)nn3c2CN(C2COC2)CC3)ccn1` [Compound I-12, 2-(4-fluorophenyl)-3-(2-methylpyridin-4-yl)-5-(oxetan-3-yl)-4,5,6,7-tetrahydropyrazolo[1,5-a]pyrazine] came in with an EC50 of 20000 nM.

In turn, `CCCC(=O)Nc1cc(-c2c(-c3ccc(F)cc3)nn3c2CN(C(=O)CCC)CC3)ccn1` [Compound I-56, N-(4-(5-butyryl-2-(4-fluorophenyl)-4,5,6,7-tetrahydropyrazolo[1,5-a]pyrazin-3-yl)pyridin-2-yl)butyramide] showed an EC50 of 600 nM. This EC50 is about 33-fold lower than that of the molecule before.

Take `CC(C)C(=O)Nc1cc(-c2c(-c3ccc(F)cc3)nn3c2CN(C(=O)C(C)C)CC3)ccn1` [Compound I-98, N-(4-(2-(4-fluorophenyl)-5-isobutyryl-4,5,6,7-tetrahydropyrazolo[1,5-a]pyrazin-3-yl)pyridin-2-yl)isobutyramide]: the EC50 worked out at 2100 nM.

With `CC(=O)Nc1cc(-c2c(-c3ccc(F)cc3)nn3c2CN(C(C)C)CC3)ccn1` [Compound I-27, N-(4-(2-(4-fluorophenyl)-5-isopropyl-4,5,6,7-tetrahydropyrazolo[1,5-a]pyrazin-3-yl)pyridin-2-yl)acetamide], the EC50 was found to be 500 nM.

`CC(=O)Nc1cc(-c2c(-c3ccc(F)cc3)nn3c2CN(CC(F)(F)F)CC3)ccn1` [Compound I-29, N-(4-(2-(4-fluorophenyl)-5-(2,2,2-trifluoroethyl)-4,5,6,7-tetrahydropyrazolo[1,5-a]pyrazin-3-yl)pyridin-2-yl)acetamide] yielded a concentration for a half-maximal effect (EC50) of 600 nM.

`CC(=O)N1CCn2nc(-c3ccc(F)cc3)c(-c3ccnc(NC(=O)c4ccn(C)n4)c3)c2C1` [Compound I-76, N-(4-(5-acetyl-2-(4-fluorophenyl)-4,5,6,7-tetrahydropyrazolo[1,5-a]pyrazin-3-yl)pyridin-2-yl)-1-methyl-1H-pyrazole-3-carboxamide]: the concentration giving a half-maximal response (EC50) is 1000 nM.

With `O=C(Cc1ccc(F)cc1)Nc1cc(-c2c(-c3ccc(F)cc3)nn3c2CN(Cc2ccccc2)CC3)ccn1` [Compound I-94, N-(4-(5-benzyl-2-(4-fluorophenyl)-4,5,6,7-tetrahydropyrazolo[1,5-a]pyrazin-3-yl)pyridin-2-yl)-2-(4-fluorophenyl)acetamide], a half-maximal effect (EC50) was put at 200 nM.

In the case of `CC(=O)Nc1cc(-c2c(-c3ccc(F)cc3)nn3c2CN(C2CC2)CC3)ccn1` [Compound I-28], the response was half-maximal at 600 nM (EC50).

For `CCN1CCn2nc(-c3ccc(F)cc3)c(-c3ccnc(NC(C)=O)c3)c2C1` [Compound I-26, N-(4-(5-ethyl-2-(4-fluorophenyl)-4,5,6,7-tetrahydropyrazolo[1,5-a]pyrazin-3-yl)pyridin-2-yl)acetamide], the response was half-maximal at 400 nM (EC50).

With `CNCCN1CCn2nc(-c3ccc(F)cc3)c(-c3ccnc(NC(C)=O)c3)c2C1` [Compound I-41, N-(4-(2-(4-fluorophenyl)-5-(2-(methylamino)ethyl)-4,5,6,7-tetrahydropyrazolo[1,5-a]pyrazin-3-yl)pyridin-2-yl)acetamide], the EC50 came out at 600 nM.

For the molecule `CC(=O)Nc1cc(-c2c(-c3ccc(F)cc3)nn3c2CN(C)CC3)ccn1` [Compound I-71, N-(4-(2-(4-fluorophenyl)-5-methyl-4,5,6,7-tetrahydropyrazolo[1,5-a]pyrazin-3-yl)pyridin-2-yl)acetamide], the response was half-maximal at 1000 nM (EC50).

`CC(=O)Nc1cc(-c2c(-c3ccc(F)cc3)nn3c2CN(Cc2ccccc2)CC3)ccn1` [Compound I-95, N-(4-(5-benzyl-2-(4-fluorophenyl)-4,5,6,7-tetrahydropyrazolo[1,5-a]pyrazin-3-yl)pyridin-2-yl)acetamide] gave an EC50 of 1700 nM.

Turning to `CC(=O)N1CCn2nc(-c3ccc(F)cc3)c(-c3ccnc(NC(=O)c4ccccc4)c3)c2C1` [Compound I-73, N-(4-(5-acetyl-2-(4-fluorophenyl)-4,5,6,7-tetrahydropyrazolo[1,5-a]pyrazin-3-yl)pyridin-2-yl)benzamide], the EC50 worked out at 110 nM.

Regarding `CC(=O)N1CCn2nc(-c3ccc(F)cc3)c(-c3ccnc(NC(=O)CC4CC4)c3)c2C1` [Compound I-75, N-(4-(5-acetyl-2-(4-fluorophenyl)-4,5,6,7-tetrahydropyrazolo[1,5-a]pyrazin-3-yl)pyridin-2-yl)-2-cyclopropylacetamide], the EC50 came out at 200 nM.

Consider `CC(=O)Nc1cc(-c2c(-c3ccc(F)cc3)nn3c2CN(C2CC(F)C2)CC3)ccn1` (centres unmarked) [Compound I-49, N-(4-(5-(3-fluorocyclobutyl)-2-(4-fluorophenyl)-4,5,6,7-tetrahydropyrazolo[1,5-a]pyrazin-3-yl)pyridin-2-yl)acetamide], for which the EC50 is 1300 nM.

`CC(=O)Nc1cc(-c2c(-c3ccc(F)cc3)nn3c2CNCC3)ccn1` [Compound I-99, N-(4-(2-(4-fluorophenyl)-4,5,6,7-tetrahydropyrazolo[1,5-a]pyrazin-3-yl)pyridin-2-yl)acetamide] displayed an EC50 of 700 nM.

The molecule `CC(C)(C)C(=O)Nc1cc(-c2c(-c3ccc(F)cc3)nn3c2CN(S(C)(=O)=O)CC3)ccn1` [Compound I-32, N-(4-(2-(4-fluorophenyl)-5-(methylsulfonyl)-4,5,6,7-tetrahydropyrazolo[1,5-a]pyrazin-3-yl)pyridin-2-yl)pivalamide] gave an EC50 of 800 nM.

Consider `CC(=O)Nc1cc(-c2c(-c3ccc(F)cc3)nn3c2CN(C(C)=S)CC3)ccn1` [Compound I-57], for which the concentration giving a half-maximal response (EC50) stood at 500 nM.

In turn, `CC(=O)Nc1cc(-c2c(-c3ccc(F)cc3)nn3c2CN(CCO)CC3)ccn1` [Compound I-31, N-(4-(2-(4-fluorophenyl)-5-(2-hydroxyethyl)-4,5,6,7-tetrahydropyrazolo[1,5-a]pyrazin-3-yl)pyridin-2-yl)acetamide] came in with an EC50 of 300 nM.

As to `CC(=O)N1CCn2nc(-c3ccc(F)cc3)c(-c3ccnc(Nc4ccncc4)c3)c2C1` [Compound I-101, 1-(2-(4-fluorophenyl)-3-(2-(pyridin-4-ylamino)pyridin-4-yl)-6,7-dihydropyrazolo[1,5-a]pyrazin-5(4H)-yl)ethan-1-one], the EC50 stood at 2200 nM.

Molecule `CC(=O)N1CCn2nc(-c3ccc(F)cc3)c(-c3ccnc(NC(=O)Cc4ccccc4)c3)c2C1` [Compound I-72, N-(4-(5-acetyl-2-(4-fluorophenyl)-4,5,6,7-tetrahydropyrazolo[1,5-a]pyrazin-3-yl)pyridin-2-yl)-2-phenylacetamide] registered an EC50 of 10 nM.

`CCC(=O)Nc1cc(-c2c(-c3ccc(F)cc3)nn3c2CN(C(=O)CC)CC3)ccn1` [Compound I-97, N-(4-(2-(4-fluorophenyl)-5-propionyl-4,5,6,7-tetrahydropyrazolo[1,5-a]pyrazin-3-yl)pyridin-2-yl)propionamide]: the EC50 turned out to be 900 nM.

Molecule `CC(=O)Nc1cc(-c2c(-c3ccc(F)cc3)nn3c2CN(C2COC2)CC3)ccn1` [Compound I-46, N-(4-(2-(4-fluorophenyl)-5-(oxctan-3-yl)-4,5,6,7-tetrahydropyrazolo[1,5-a]pyrazin-3-yl)pyridin-2-yl)acetamide] showed an EC50 of 1200 nM.

By EC50 is commonly meant the midpoint of the concentration-response curve.

These data come from patent US20250276972A1, “COMPOUNDS AS CASEIN KINASE INHIBITORS” (GRITSCIENCE BIOPHARMACEUTICALS CO.,LTD., priority 2020, published 2025).
